Measured values taken from ChEMBL document CHEMBL5518181, “Studies of antibacterial activity (in vitro and in vivo) and mode of action for des-acyl tridecaptins (DATs)” (Eur J Med Chem, 2024).
Converted amounts (≈) assume the structure as drawn.

How the values were obtained:
[1] = tested on: Escherichia coli; experiment: Antibacterial activity against wild-type Escherichia coli ATCC 25922 assessed as inhibition of bacterial growth incubated for 18 hrs; type: functional; details: read-out: MIC100
[2] = tested on: Klebsiella pneumoniae; experiment: Antibacterial activity against wild-type Klebsiella pneumoniae ATCC 13883 assessed as inhibition of bacterial growth incubated for 18 hrs; type: functional; details: read-out: MIC100
[3] = Hemolytic activity in human red blood cells at 400 ug/ml incubated for 45 mins by spectrophotometric analysis relative to control; type: toxicity, cell-based, Erythrocyte; details: red blood cells (erythrocytes), at 400 µg/mL, read-out: Activity
[4] = Cytotoxicity against human HepG2 cells incubated for 40 hrs by celltiter-glo luminescent cell viability assay; type: toxicity, cell-based
[5] = tested on: Escherichia coli; experiment: Antibacterial activity against wild-type Escherichia coli ATCC 25922 assessed as inhibition of bacterial growth by measuring fold increase in MIC incubated for 18 hrs in presence of 50% heat inactivated human serum relative to control; type: functional
[6] = tested on: Escherichia coli; experiment: Antibacterial activity against wild-type Escherichia coli ATCC 25922 assessed as inhibition of bacterial growth incubated for 18 hrs in presence of 50% heat inactivated human serum; type: functional; details: read-out: MIC100
[7] = tested on: Escherichia coli; experiment: Antibacterial activity against Escherichia coli ATCC 25922 harboring hldE knock-out assessed as inhibition of bacterial growth incubated for 18 hrs; type: functional; details: read-out: MIC100
[8] = tested on: Escherichia coli; experiment: Antibacterial activity against Escherichia coli ATCC 25922 harboring tolC knock-out assessed as inhibition of bacterial growth incubated for 18 hrs; type: functional; details: read-out: MIC100
[9] = tested on: Klebsiella pneumoniae; experiment: Antibacterial activity against wild-type Klebsiella pneumoniae ATCC 13883 assessed as inhibition of bacterial growth incubated for 18 hrs in presence of 50% heat inactivated human serum; type: functional; details: read-out: MIC100
[10] = tested on: Acinetobacter baumannii; experiment: Antibacterial activity against wild-type Acinetobacter baumannii ATCC 19606 assessed as inhibition of bacterial growth incubated for 20 hrs; type: functional; details: read-out: MIC100
[11] = tested on: Pseudomonas aeruginosa; experiment: Antibacterial activity against wild-type Pseudomonas aeruginosa PAO1 assessed as inhibition of bacterial growth incubated for 24 hrs; type: functional; details: read-out: MIC100
[12] = tested on: Staphylococcus aureus; experiment: Antibacterial activity against […] assessed as inhibition of bacterial growth incubated for 18 hrs; type: functional; details: ATCC 29213, read-out: MIC100
[13] = Hydrophobicity of compound assessed as %MeCN at peak elution by RP-HPLC analysis; type: physicochemical
[14] = Binding affinity to gram negative bacterial lipid II assessed as dissociation constant by ITC analysis; set-up: species or system Bacteria
[15] = tested on: Lipopolysaccharide (LPS); experiment: Binding affinity to Escherichia coli O55:B5 LPS assessed as dissociation constant by ITC analysis; type: subcellular
[16] = tested on: Citrobacter freundii; experiment: Antibacterial activity against Citrobacter freundii ATCC 8090 assessed as inhibition of bacterial growth incubated for 18 hrs; type: functional; details: read-out: MIC100
[17] = tested on: Klebsiella pneumoniae; experiment: Antibacterial activity against Klebsiella pneumoniae ATCC BAA-2470 expressing NDM-1 assessed as inhibition of bacterial growth incubated for 18 hrs; type: functional; details: read-out: MIC100
[18] = tested on: Klebsiella pneumoniae; experiment: Antibacterial activity against Klebsiella pneumoniae ATCC 43816 assessed as inhibition of bacterial growth incubated for 18 hrs; type: functional; details: read-out: MIC100
[19] = tested on: Klebsiella aerogenes; experiment: Antibacterial activity against Enterobacter aerogenes ATCC 13048 assessed as inhibition of bacterial growth incubated for 18 hrs; type: functional; details: read-out: MIC100
[20] = tested on: Escherichia coli; experiment: Antibacterial activity against Escherichia coli ATCC BAA-2469 expressing NDM-1 assessed as inhibition of bacterial growth incubated for 18 hrs; type: functional; details: read-out: MIC100
[21] = tested on: Escherichia coli; experiment: Antibacterial activity against colistin resistant Escherichia coli NCTC 13846 harboring mcr-1 gene assessed as inhibition of bacterial growth incubated for 18 hrs; type: functional; details: read-out: MIC100
[22] = tested on: Escherichia coli; experiment: Antibacterial activity against Escherichia coli Swiss 7 harboring mcr-1 gene assessed as inhibition of bacterial growth incubated for 18 hrs; type: functional; details: read-out: MIC100
[23] = tested on: Escherichia coli; experiment: Antibacterial activity against Escherichia coli Swiss 9 harboring mcr-1 gene assessed as inhibition of bacterial growth incubated for 18 hrs; type: functional; details: read-out: MIC100
[24] = tested on: Morganella morganii; experiment: Antibacterial activity against Morganella morganii ATCC 25830 assessed as inhibition of bacterial growth incubated for 18 hrs; type: functional; details: read-out: MIC100
[25] = tested on: Proteus mirabilis; experiment: Antibacterial activity against Proteus mirabilis ATCC 25933 assessed as inhibition of bacterial growth incubated for 18 hrs; type: functional; details: read-out: MIC100
[26] = tested on: Providencia stuartii; experiment: Antibacterial activity against Providencia stuartii ATCC 25826 assessed as inhibition of bacterial growth incubated for 18 hrs; type: functional; details: read-out: MIC100
[27] = tested on: Salmonella typhimurium; experiment: Antibacterial activity against Salmonella typhimurium ATCC 13311 assessed as inhibition of bacterial growth incubated for 18 hrs; type: functional, Salmonella enterica subsp. enterica serovar Typhimurium; details: Salmonella enterica, read-out: MIC100
[28] = tested on: Serratia marcescens; experiment: Antibacterial activity against intrinsically colistin resistant Serratia marcescens ATCC 13880 assessed as inhibition of bacterial growth incubated for 18 hrs; type: functional; details: read-out: MIC100
[29] = tested on: Pseudomonas aeruginosa; experiment: Antibacterial activity against efflux-deficient Pseudomonas aeruginosa PAO750 assessed as inhibition of bacterial growth incubated for 18 hrs; type: functional; details: read-out: MIC100
[30] = tested on: Staphylococcus aureus; experiment: Antibacterial activity against wild type Staphylococcus aureus USA300 assessed as inhibition of bacterial growth incubated for 18 hrs; type: functional; details: read-out: MIC100

SMILES	MIC [1]	MIC [2]	hemolysis at 0.75 h, 400 ug/ml [3]	IC50 at 40 h [4]	fold change (FC) [5]	MIC [6]	MIC [7]	MIC [8]	MIC [9]	MIC [10]	MIC [11]	MIC [12]	MeCN percentage at peak elution [13]	Kd [14]	further results
CC[C@H](C)[C@@H](NC(=O)[C@@H](NC(=O)[C@H](CCC(=O)O)NC(=O)[C@H](Cc1ccccc1)NC(=O)[C@@H](CCN)NC(=O)[C@H](CCN)NC(=O)[C@H](CO)NC(=O)[C@@H](Cc1c[nH]c2ccccc12)NC(=O)[C@@H](CO)NC(=O)CNC(=O)[C@@H](CCN)NC(=O)[C@H](NC(=O)[C@H](C)N)C(C)C)C(C)(C)C)C(=O)N[C@@H](C)C(N)=O	16 µg/mL (≈ 10.8 µM)	8 µg/mL (≈ 5.41 µM)	6%	> 170 µg/mL	8	2 µg/mL	> 64 µg/mL	0.5 µg/mL (≈ 0.338 µM)	0.125 µg/mL	64 µg/mL (≈ 43.3 µM)	> 64 µg/mL	> 64 µg/mL	41.8%	2150 nM	–
CC[C@H](C)[C@@H](NC(=O)[C@@H](NC(=O)[C@H](CCC(=O)O)NC(=O)[C@H](Cc1ccccc1)NC(=O)[C@@H](CCN)NC(=O)[C@H](CCN)NC(=O)[C@H](CO)NC(=O)[C@@H](Cc1c[nH]c2ccccc12)NC(=O)[C@@H](CO)NC(=O)CNC(=O)[C@@H](CCN)NC(=O)[C@H](NC(=O)CCN)C(C)C)C(C)C)C(=O)N[C@@H](C)C(=O)O	≥ 2 µg/mL	2 µg/mL (≈ 1.36 µM)	0%	> 170 µg/mL	–	–	0.5 µg/mL (≈ 0.341 µM)	0.5 µg/mL (≈ 0.341 µM)	–	32 µg/mL (≈ 21.8 µM)	8 µg/mL (≈ 5.46 µM)	64 µg/mL (≈ 43.7 µM)	39.8%	390 nM	–
CC[C@H](C)[C@@H](NC(=O)[C@@H](NC(=O)[C@H](CCC(=O)O)NC(=O)[C@H](Cc1c[nH]c2ccccc12)NC(=O)[C@@H](CCN)NC(=O)[C@H](CCN)NC(=O)[C@H](CO)NC(=O)[C@@H](Cc1c[nH]c2ccccc12)NC(=O)[C@@H](CO)NC(=O)CNC(=O)[C@@H](CCN)NC(=O)[C@H](NC(=O)[C@H](C)N)C(C)C)C(C)C)C(=O)N[C@@H](C)C(=O)O	1 µg/mL (≈ 0.665 µM)	1 µg/mL (≈ 0.665 µM)	41.7%	151 µg/mL (≈ 100 µM)	–	–	–	–	–	–	–	–	–	5200 nM	Kd [15]: 14.8 µM
CC[C@H](C)[C@@H](NC(=O)[C@@H](NC(=O)[C@H](CCC(=O)O)NC(=O)[C@H](Cc1ccccc1)NC(=O)[C@@H](CCN)NC(=O)[C@H](CCN)NC(=O)[C@H](CO)NC(=O)[C@@H](Cc1c[nH]c2ccccc12)NC(=O)[C@@H](CO)NC(=O)CNC(=O)[C@@H](CCN)NC(=O)[C@H](NC(=O)CCCCCN)C(C)C)C(C)C)C(=O)N[C@@H](C)C(=O)O	64 µg/mL (≈ 42.4 µM)	32 µg/mL (≈ 21.2 µM)	3.5%	> 170 µg/mL	8	2 µg/mL	8 µg/mL (≈ 5.31 µM)	32 µg/mL (≈ 21.2 µM)	2 µg/mL	64 µg/mL (≈ 42.4 µM)	> 64 µg/mL	> 64 µg/mL	40.1%	–	–
O=C(O)c1cn(C2CC2)c2cc(N3CCNCC3)c(F)cc2c1=O [CIPROFLOXACIN]	–	0.032 µg/mL (≈ 0.0966 µM)	–	> 170 µg/mL	–	–	–	–	–	–	–	–	–	–	MIC [16]: 4 ng/mL (≈ 0.0121 µM); MIC [17]: > 1 µg/mL; MIC [18]: 3 ng/mL (≈ 0.00905 µM); MIC [19]: 8 ng/mL (≈ 0.0241 µM); MIC [20]: > 1 µg/mL; MIC [21]: > 1 µg/mL; MIC [22]: > 1 µg/mL; MIC [23]: > 1 µg/mL; MIC [24]: 2 ng/mL (≈ 0.00604 µM); MIC [25]: 0.016 µg/mL (≈ 0.0483 µM); MIC [26]: 0.016 µg/mL (≈ 0.0483 µM); MIC [27]: 4 ng/mL (≈ 0.0121 µM); MIC [28]: 0.032 µg/mL (≈ 0.0966 µM); MIC [29]: 4 ng/mL (≈ 0.0121 µM); MIC [30]: 1 µg/mL (≈ 3.02 µM)
CC[C@H](C)[C@@H](NC(=O)[C@@H](NC(=O)[C@H](CCC(=O)O)NC(=O)[C@H](Cc1ccccc1)NC(=O)[C@@H](CCN)NC(=O)[C@H](C)NC(=O)[C@H](CO)NC(=O)[C@@H](Cc1c[nH]c2ccccc12)NC(=O)[C@@H](CO)NC(=O)CNC(=O)[C@@H](CCN)NC(=O)[C@H](NC(=O)[C@H](C)N)C(C)C)C(C)C)C(=O)N[C@@H](C)C(=O)O	8 µg/mL (≈ 5.57 µM)	4 µg/mL (≈ 2.78 µM)	7.9%	121 µg/mL (≈ 84.2 µM)	–	8 µg/mL	4 µg/mL (≈ 2.78 µM)	8 µg/mL (≈ 5.57 µM)	16 µg/mL	32 µg/mL (≈ 22.3 µM)	> 64 µg/mL	> 64 µg/mL	44.3%	3700 nM	–
